This is an account of results in ChEMBL document CHEMBL6153098, “Immunomodulatory Potential of a Bibenzyl-dihydrophenanthrene Derivative Isolated from Calanthe cardioglossa” (J Nat Prod, 2025).

The subject of series [1] is THP-1. Briefly: Cytotoxicity against human THP-1 cells assessed as cell viability at 10 uM incubated for 4 hrs by PrestoBlue cell viability assay. To be noted: thp-1, 4 h. In kind it is toxicity, cell-based.
The test system of series [2] is THP-1. Kind of series: Immunomodulatory activity in human THP-1 cells assessed as reduction in LPS-induced TNF-alpha production at 10 uM incubated for 4 hrs by ELISA assay. The class given is functional, cell-based. For orientation: In an ELISA, binding on a coated surface is turned into a signal by an enzyme label.
For another series, the system named is PBMC. Kind of series: Immunomodulatory activity in multiple sclerosis pateint-derived human PBMC cells assessed as reduction in LPS-induced TNF-alpha production in CD14+ monocytes at 10 uM incubated for 4 hrs by flow cytometry assay. The class given is functional, cell-based. Background: A flow cytometer gives signals particle by particle.

Activity calls are given as the source filed them. The rule behind the calls is not given here.

Turning to `COc1cccc(CCc2cc(OC)cc(O)c2-c2cc3c(cc2O)CCc2cc(OC)cc(O)c2-3)c1`, the Activity result in the series with THP-1 [1] is recorded as “Non-toxic”; in the series with THP-1 [2] it was “Active; Compound Exhibited The Most Pronounced Activity”. The outcome with PBMC was Active.

As to `COc1cc(O)cc2c1-c1ccc(O)cc1CC2`, the Activity result in the series with THP-1 [1] is recorded as “Non-toxic”. For the same compound, the result in the series with THP-1 [2] was inactive.

Turning to `COc1cc(O)c2c(c1)CCc1cc(O)c(-c3c(O)cc(OC)c4c3CCc3cc(O)ccc3-4)cc1-2`, the Activity entry in the series on THP-1 [1] is “Non-toxic”. In addition, the outcome with THP-1 [2] was Active.

Take `O=c1c2ccccc2ncn1-c1ccccc1O`: the Activity result in the series with THP-1 [1] is listed as “Non-toxic”.

As to `COc1cc(O)c2c(c1)CCc1cc(O)ccc1-2`, the result in the series on THP-1 [2] was Active.

On to `COc1cc(O)cc(CCc2ccc(O)c(OC)c2)c1` [GIGANTOL], for which the Activity entry in the series on THP-1 [1] was “Non-toxic”. Also, in the series on THP-1 [2], the result was Active.

In the case of `COc1cc(O)cc(CCc2cccc(O)c2)c1` [BATATASIN III], in the series on THP-1 [1], the Activity result is given as “Non-toxic”. In the series on THP-1 [2], the outcome was Active.

For `COc1cc([C@H]2Oc3cc4c(cc3[C@@H]2CO)-c2c(cc(O)cc2OC)CC4)ccc1O`, the Activity result in the series with THP-1 [1] is given as “Non-toxic”.

As to `COc1cc(O)cc2c1-c1cc(-c3c(O)cc(OC)c4c3CCc3cc(O)ccc3-4)c(O)cc1CC2`, the Activity result with THP-1 [1] was “Non-toxic”.

`COc1cc(C2Oc3cc(OC)c4c(c3C2COC(C)=O)CCc2cc(O)ccc2-4)ccc1O` (stereo unspecified): the Activity result with THP-1 [1] was “Non-toxic”.
